“Also recorded” adds a separate entry of the source.
Legend:
PC3-LACZ xenografts = assay: PC3-LACZ mouse xenograft model; format: in vivo, mice; details: PC3-LACZ (ETS negative)
From the text: (§1) Olaparib was obtained from Axon Medchem (Groningen, The Netherlands).

[1] = test system: RWPE cells transduced with ERG adenovirus; assay: Basement membrane matrix invasion assay, RWPE cells transduced with ERG adenovirus; format: cell-based, human; details: P<0.01 for DNA-PKcs siRNA or NU7026>10 μM, P<0.05 for all PARP1 siRNA, NU1025 or Olaparib treatments
Procedure: (§2) For invasion assays, the prostate cell lines RWPE-1 and VCaP were transfected with siRNA or negative controls as indicated. NU7026 (Sigma) and NU1025 (Calbiochem) were dissolved in DMSO and stored at −20° C. in the dark. Forty-eight hours post-transfection/transduction, cells were seeded onto the basement membrane matrix (EC matrix, Chemicon, Temecula, Calif.) in the chamber insert with […] pores of a 24-well culture plate in serum free media. Cells were attracted to the lower chamber by the addition of complete media as a chemoattractant. After 48 hours incubation at 37° C. with 5% CO2, the non-invading cells and EC matrix were gently removed with a cotton swab. Invasive cells, which were located on the lower side of the membrane, were stained with crystal violet, air dried and photographed. To quantify the relative number of invaded cells, colorimetric assays were performed by treating the inserts with 150 μl of 10% acetic acid (v/v) and measuring absorbance of each condition at 560 nm using a spectrophotometer (GE Healthcare).

[2] = test system: VCaP and PC3 xenograft tumors; assay: Ki67 and CD31 immunohistochemistry on tissue microarray of VCaP and PC3 xenograft tumors; details: pairwise t-test
Procedure: Changes in both relative cell proliferation of the tumors (Ki67) and microvessel density (CD31) were assessed using a tissue microarray made from formalin-fixed, paraffin-embedded tumors from all xenograft tumors analyzed in the VCaP and PC3 studies.

[3] = Total cell number after 72 hours (data not shown); format: cell-based
VCaP xenografts = assay: VCaP mouse xenograft model; format: in vivo, mice; details: VCaP; Olaparib 40 mg/kg/day IP (P=0.001); NU7026 25 mg/kg/day IP (p=0.004)
From the text: as §1

VCaP cells = assay: Basement membrane matrix invasion assay, VCaP cells; format: cell-based, human; details: P<0.01 for DNA-PKcs siRNA or NU7026>10 μM; P<0.05 for all PARP1 siRNA, NU1025 or Olaparib treatments
Procedure: as §2

[4] = test system: ERG target genes in VCaP cells; assay: qPCR analysis of ERG-target genes in VCaP cells; format: cell-based, human; details: siRNA or drug for 48 hours
Procedure: Total RNA was isolated from VCAP, RWPE or PrEC cells that were transfected with siRNA as indicated (Qiagen). Quantitative PCR (QPCR) was performed using SYBR Green dye on an Applied Biosystems 7300 Real Time PCR system (Applied Biosystems, Foster City, Calif.) as described (Tomlins, S. A., et al. Science (New York, N.Y. 310, 644-648 (2005)). Briefly, 1 μg of total RNA was reverse transcribed into cDNA using SuperScript 111 (Invitrogen, Carlsbad, Calif.) in the presence of random primers (Invitrogen). All reactions were performed in triplicate with SYBR Green Master Mix (Applied Biosystems) plus 25 ng of both the forward and reverse primer according to the manufacturer's recommended thermocycling conditions, and then subjected to melt curve analysis. […] The relative quantity of the target gene was completed for each sample using the ΔΔCt method by the comparing mean Ct of the gene to the average Ct of the housekeeping gene, β-Actin8. […] The primer sequences for the transcript analyzed were either previously described (Tomlins et al., 2008, supra) or are provided in Table 4.
Total RNA was isolated from VCAP, RWPE or PrEC cells that were transfected with siRNA as indicated (Qiagen). […] The relative quantity of the target gene was completed for each sample using the ΔΔCt method by the comparing mean Ct of the gene to the average Ct of the housekeeping gene, β-Actin8. […]

PC3 xenografts = assay: PC3 (PC3-control) mouse xenograft model; format: in vivo, mice; details: PC3 / PC3-control (ETS negative); Olaparib 40 mg/kg IP, NU7026 25 mg/kg IP
From the text: as §1

[5] = test system: ERG-target gene expression; assay: qPCR of ERG-target genes in staged PC3-ERG tumors; format: in vivo, mice; details: 4 hours, 40 mg/kg Olaparib or 25 mg/kg NU7026
PC3-ERG xenografts = details: mouse, in vivo
Procedure: Four weeks old male Balb C nu/nu mice were purchased from Charles River, Inc. (Charles River Laboratory, Wilmington, Mass.). VCaP (2×10^6 cells), PC3-luciferase-control (1×10^5 cells) or PC3-luciferase-ERG (1×10^5 cells) stable cells were resuspended in 100 μl of saline with 50% Matrigel (BD Biosciences, Becton Drive, NJ) and were implanted subcutaneously into the left flank region of the mice. Mice were anesthetized using a cocktail of xylazine (80-120 mg/kg, IP) and ketamine (10 mg/kg, IP) for chemical restraint before tumor implantation. All tumors were staged for three week before starting the drug treatment. After week 3 for VCaP cells or after 48 hours for PC3 cells, mice (10 per treatment group) were treated with NU7026 (25 mg/kg, IP), Olaparib (40 mg/kg, IP) daily five times a week. Olaparib was obtained from Axon Medchem (Groningen, The Netherlands). Growth in tumor volume was recorded weekly by using digital calipers and tumor volumes were calculated using the formula (π/6) (L×W2), where L=length of tumor and W=width. Loss of body weight during the course of the study was also monitored weekly.

O=c1cc(N2CCOCC2)oc2c1ccc1ccccc12 [NU7026]
xenograft growth (PC3-LACZ xenografts): did not significantly inhibit xenograft growth | ERG-driven cell invasion [1]: attenuated invasion | average number of Ki67 positive cells [2]: Neither NU7026 nor Olaparib consistently led to a significant change | microvessel density (CD31) [2]: Neither NU7026 nor Olaparib consistently led to a significant change | total cell number [3]: did not alter total cell number | tumor growth relative to the vehicle control (VCaP xenografts): significant reduction of tumor growth | VCaP cell invasion (VCaP cells): attenuated invasion | expression of the ERG target genes (qPCR) [4]: confirmed gene expression changes as predicted by the gene expression arrays; also recorded: altered expression of the ERG target genes | xenograft growth (PC3 xenografts): did not block the growth; also recorded: did not significantly inhibit xenograft growth | ERG-target gene expression in tumors (qPCR) [5]: loss of ERG-target gene expression | xenograft growth (PC3-ERG xenografts): unable to reduce the xenograft growth rate
